According to publication PMC9974123, “Targeting prolyl-tRNA synthetase via a series of ATP-mimetics to accelerate drug discovery against toxoplasmosis” (PLOS Pathogens, 2023):
Where two headings read alike, the source gives them in different places.

How the values were obtained:
Toxoplasma gondii WT = system: T1, Toxoplasma gondii WT; experiment: microbe, parasite or virus in culture; parameters: species or system human foreskin fibroblasts (HFF); T. gondii RH NLuc tachyzoite growth in HFF monolayer, Nano-Glo luciferase luminescence; settings: Fibroblast, 48 h
T1 construct: RH
Method: Compounds were synthesized (HPLC purity > 95%) according to reported procedures. A confluent Human Foreskin Fibroblast (HFF) monolayer was infected with 2,000 tachyzoites of RH parasites expressing the NLuc luciferase (RH NLuc) for 2 h to allow parasite invasion. Each compound was added to the culture medium, and infected cells were incubated at 37° C for 48 h. To measure luminescence, the medium was replaced by 50 μL of PBS, and the luminescence assay was performed using Nano-Glo Luciferase Assay System according to the manufacturer’s instructions (Promega). After 3 min of incubation, the luminescence was measured using the CLARIOstar (BMG Labtech) plate reader. EC50 was determined using a non-linear regression analysis of normalized data assuming a sigmoidal dose-response. […] Statistical analyses were performed using a one-way ANOVA test with GraphPad software.  Fig 4 Activity of five compounds on PRS edited parasites. A-D) EC50 values for L95, L96, L97, and L36 were determined for wild-type (WT) and the engineered PRS mutant strains (T477A and T592S). Data are mean value ±SD from at least 2 independent biological replicates, each with 3 technical replicates. Associated dose-response curves are shown in S2C Fig. Higher EC50 values for the mutants confirm that PRS is the molecular target of all five compounds tested. The P-values were calculated using one-way ANOVA analysis and multiple-comparison post hoc tests. n.s., not significant. Associated dose-response curves are shown in S1 Fig. E) The EC50 (nM) values for the engineered PRS mutant strains (T477A and T592S) are shown in comparison with the TgPRS wild type. F) The catalytic cavity of TgPRS is shown with two inhibitors along with their electron densities–HFG (green) and L95 (red)–bound to the tRNA and L-pro binding sites and the ATP binding site respectively. The ribbon of PRS is in cyan whilst the resistance-conferring mutating residues T477 and T592 to L35 are shown in purple. (n.d.–not detected).

[1] = target: T2, Toxoplasma gondii prolyl-tRNA synthetase (TgPRS) (Toxoplasma gondii, UniProt S8G8I1); experiment: co-crystal structure with L-pro; aminoacylation inhibition (malachite green); thermal shift (ΔTm […] °C with L-Pro); assay type: biochemical
T2 construct: gene TGME49_219850; length 334–830

[2] = target: T2, Toxoplasma gondii prolyl-tRNA synthetase (TgPRS); experiment: as above; assay type: biochemical; remark: listed apart in the source
[3] = target: T3, Homo sapiens prolyl-tRNA synthetase (HsPRS) (Homo sapiens, UniProt P07814); experiment: co-crystal structure with L-pro; aminoacylation inhibition; thermal shift (ΔTm […] °C with L-pro); assay type: binding
T3 construct: gene EPRS1; length 1015–1506
T3 sequence (P07814 1015-1506): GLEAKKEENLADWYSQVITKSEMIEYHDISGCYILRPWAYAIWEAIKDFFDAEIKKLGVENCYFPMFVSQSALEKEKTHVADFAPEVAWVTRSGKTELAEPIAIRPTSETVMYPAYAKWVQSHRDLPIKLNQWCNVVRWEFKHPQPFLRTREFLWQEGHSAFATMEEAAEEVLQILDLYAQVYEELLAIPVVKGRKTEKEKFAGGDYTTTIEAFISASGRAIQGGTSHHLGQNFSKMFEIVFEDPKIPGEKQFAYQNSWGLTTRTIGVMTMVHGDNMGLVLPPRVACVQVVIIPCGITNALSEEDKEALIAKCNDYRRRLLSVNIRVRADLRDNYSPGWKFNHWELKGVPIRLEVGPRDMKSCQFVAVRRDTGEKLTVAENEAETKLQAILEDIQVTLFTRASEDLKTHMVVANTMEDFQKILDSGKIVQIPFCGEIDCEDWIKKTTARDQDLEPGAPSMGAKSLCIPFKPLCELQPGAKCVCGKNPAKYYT

[4] = target: T2, Toxoplasma gondii prolyl-tRNA synthetase (TgPRS); experiment: co-crystal structure with L-pro; aminoacylation inhibition (malachite green); thermal shift (ΔTm […] °C with L-Pro); assay type: biochemical; remark: listed apart in the source
[5] = target: T3, Homo sapiens prolyl-tRNA synthetase (HsPRS); experiment: co-crystal structure with L-pro; aminoacylation inhibition; thermal shift (ΔTm […] °C with L-pro); assay type: binding; remark: listed apart in the source
[6] = target: T2, Toxoplasma gondii prolyl-tRNA synthetase (TgPRS); experiment: co-crystal structure with L-pro; aminoacylation inhibition (malachite green); thermal shift (ΔTm […] °C with L-Pro); assay type: biochemical; remark: listed apart in the source
[7] = target: T3, Homo sapiens prolyl-tRNA synthetase (HsPRS); experiment: co-crystal structure with L-pro; aminoacylation inhibition; thermal shift (ΔTm […] °C with L-pro); assay type: binding; remark: listed apart in the source
[8] = target: T2, Toxoplasma gondii prolyl-tRNA synthetase (TgPRS); experiment: co-crystal structure with L-pro; aminoacylation inhibition (malachite green); thermal shift (ΔTm […] °C with L-Pro); assay type: biochemical; remark: listed apart in the source

T2 sequence (S8G8I1 entry or part of it): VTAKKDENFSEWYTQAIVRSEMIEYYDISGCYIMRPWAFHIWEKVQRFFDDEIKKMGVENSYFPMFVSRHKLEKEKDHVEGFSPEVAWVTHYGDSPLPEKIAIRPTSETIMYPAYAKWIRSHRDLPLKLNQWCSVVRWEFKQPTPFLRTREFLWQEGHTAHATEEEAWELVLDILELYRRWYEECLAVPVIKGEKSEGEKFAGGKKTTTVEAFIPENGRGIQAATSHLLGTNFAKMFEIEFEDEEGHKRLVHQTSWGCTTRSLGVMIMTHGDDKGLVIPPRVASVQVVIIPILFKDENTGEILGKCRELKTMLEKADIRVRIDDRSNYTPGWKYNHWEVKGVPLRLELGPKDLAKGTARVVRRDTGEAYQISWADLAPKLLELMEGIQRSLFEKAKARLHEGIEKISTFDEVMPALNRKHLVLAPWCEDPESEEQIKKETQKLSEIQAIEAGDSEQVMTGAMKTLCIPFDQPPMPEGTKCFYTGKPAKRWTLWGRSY

Question: `Cc1cc(N2CC[C@@](C#N)(C3(C)CC3)C2=O)cc(C(=O)NCc2cc(F)cc(-c3cnn(C)c3)c2)n1` [L35] was tested. Which EC50 (Toxoplasma gondii WT; read-out: EC50 Treated-L35 (nM)) did it give?
Answer: 31 ± 12 nM

Question: What about the IC50 [1] of the same compound?
Answer: 9.2 nM

Question: `Cc1cc(N2CC[C@](C#N)(C3(C)CC3)C2=O)cc(C(=O)NCc2cc(F)cc(-c3cnn(C)c3)c2)n1` [L36] was tested. Which IC50 [2] did it give?
Answer: 2410 nM

Question: What about the EC50 (Toxoplasma gondii WT; read-out: EC50 Treated-L36 (nM)) of the same compound?
Answer: 5800 ± 350 nM

Question: Which results are given for `Cc1cc(N2CC[C@@](C#N)(C3CC3)C2=O)cc(NC(=O)Cc2ccccc2)n1` [L95]?
Answer: co-crystal structure with L-pro; aminoacylation inhibition; thermal shift (ΔTm 1) [3]: The complex structure of HsPRS with L95, L96, and L97 was determined; IC50 [4]: 140 nM; EC50 (Toxoplasma gondii WT; read-out: EC50 Treated-L95 (nM)): 277 ± 6 nM

Question: `COc1cncc(-c2cc(F)cc(CNC(=O)c3cc(N4CC[C@@](C#N)(C5CC5)C4=O)cc(C)n3)c2)c1` [L96] was tested. Which EC50 (Toxoplasma gondii WT; read-out: EC50 Treated-L96 (nM)) did it give?
Answer: 106 ± 36 nM

Question: And the “co-crystal structure with L-pro; aminoacylation inhibition; thermal shift (ΔTm 2)” value [5]?
Answer: The complex structure of HsPRS with L95, L96, and L97 was determined

Question: What about the IC50 [6] of the same compound?
Answer: 79.7 nM

Question: `Cc1cc(N2CCC(CO)(C3CC3)C2=O)cc(C(=O)NCc2cc(F)cc(-c3cnn(C)c3)c2)n1` (centres unmarked) [L97] was tested. Which “co-crystal structure with L-pro; aminoacylation inhibition; thermal shift (ΔTm 1)” value [7] did it give?
Answer: The complex structure of HsPRS with L95, L96, and L97 was determined

Question: And the EC50 (Toxoplasma gondii WT; read-out: EC50 Treated-L97 (nM))?
Answer: 544 ± 130 nM

Question: And the IC50 [8]?
Answer: 50 nM

Question: With `CCc1nc(N)nc(N)c1-c1ccc(Cl)cc1` [PYR, pyrimethamine] as the compound, how does the EC50 (Toxoplasma gondii WT; read-out: EC50 Treated-PYR (nM)) read?
Answer: 174 ± 60 nM
